Measurements published in patent publication US10081631B2, “2-(1H-indazol-3-yl)-1H-imidazo[4,5-C]pyridine and therapeutic uses thereof” (Samumed, LLC, priority 2014, dated 2018).

Each molecule was assayed on Wnt activity (Sp5-Luc reporter, SW480 colon carcinoma cells) (assay: Screening assay for Wnt activity: Sp5-Luc reporter gene assay in SW480 cells). Conditions: Homo sapiens, 42 h incubation, luminescence.
Format: cell-based
Source text: The screening assay for Wnt activity is described as follows. Reporter cell lines can be generated by stably transducing cancer cell lines (e.g., colon cancer) or primary cells (e.g., IEC-6 intestinal cells) with a lentiviral construct that includes a Wnt-responsive promoter driving expression of the firefly luciferase gene.
SW480 colon carcinoma cells were transduced with a lentiviral vector expressing luciferase with a human Sp5 promoter consisting of a sequence of eight TCF/LEF binding sites. SW480 cells stably expressing the Sp5-Luc reporter gene and a hygromycin resistance gene were selected by treatment with 150 μg/ml of hygromycin for 7 days. These stably transduced SW480 cells were expanded in cell culture and used for all further screening activities. For Sp5-Luc reporter gene assays, the cells were plated at 10,000 cells/well in 96-well plates with growth medium containing 10% fetal calf serum and incubated overnight at 37° C. and 5% CO2. Each compound was dissolved in DMSO as a 10 mM stock in standard j-vials and used to prepare compound source plates in dose-response format with 3-fold serial dilutions and a 10 mM top concentration. Compound transfer from serially diluted source plates to assay plates containing the cells was accomplished using a pintool (Multimek 96, Beckman equipped with V&P Scientific FP1S50H pins) based liquid handling protocol. This protocol used a slotted pin to transfer 50 nl of compound from a source plate well to an assay plate well containing 50 μl of cells in growth medium. […] Control wells received 50 nl of DMSO treatment for normalization and calculating IC50 values. The treated cells were incubated at 37° C. and 5% CO2 for an additional forty-two hours. Following incubation, the growth medium was removed and 50 μl of BrightGlo luminescence reagent (Promega) was added to each well of the 96-well assay plates. The plates were placed on an orbital shaker for 5 min and then luminescence was quantified on the Victor3 (Perkin Elmer) plate reader. Readings were normalized to DMSO only treated cells, and normalized activities were utilized for IC50 calculations using the dose-response log (inhibitor) vs. response-variable slope (four parameters) nonlinear regression feature available in GraphPad Prism 5.0 or 6.0.
`O=C(Cc1ccccc1)Nc1cncc(-c2ccc3[nH]nc(-c4nc5c(-c6ccncc6)nccc5[nH]4)c3c2)c1` [Compound 114, 2-Phenyl-N-(5-(3-(4-(pyridin-4-yl)-1H-imidazo[4,5-c]pyridin-2-yl)-1H-indazol-5-yl)pyridin-3-yl)acetamide] was tested, and the IC50 was 36 nM.
`CCCC(=O)Nc1cncc(-c2ccc3[nH]nc(-c4nc5c(-c6ccncc6)nccc5[nH]4)c3c2)c1` [Compound 121, N-(5-(3-(4-(Pyridin-4-yl)-1H-imidazo[4,5-c]pyridin-2-yl)-1H-indazol-5-yl)pyridin-3-yl)butyramide] gave an IC50 of 102 nM.
In the case of `O=C(Nc1cncc(-c2ccc3[nH]nc(-c4nc5c(-c6ccccn6)nccc5[nH]4)c3c2)c1)c1ccccc1` [Compound 141, N-(5-(3-(4-(Pyridin-2-yl)-1H-imidazo[4,5-c]pyridin-2-yl)-1H-indazol-5-yl)pyridin-3-yl)benzamide], the IC50 is reported as > 10000 nM.
Molecule `CCCCC(=O)Nc1cncc(-c2ccc3[nH]nc(-c4nc5c(-c6ccccn6)nccc5[nH]4)c3c2)c1` [Compound 148, N-(5-(3-(4-(Pyridin-2-yl)-1H-imidazo[4,5-c]pyridin-2-yl)-1H-indazol-5-yl)pyridin-3-yl)pentanamide] has an IC50 of 248 nM.
With `CC(C)Nc1cncc(-c2ccc3[nH]nc(-c4nc5c(N6CCCCC6)nccc5[nH]4)c3c2)c1` [Compound 168, N-Isopropyl-5-(3-(4-(piperidin-1-yl)-1H-imidazo[4,5-c]pyridin-2-yl)-1H-indazol-5-yl)pyridin-3-amine] the IC50 was 88.1 nM.
`CN1CCN(c2nccc3[nH]c(-c4n[nH]c5ccc(-c6cncc(N)c6)cc45)nc23)CC1` [Compound 211, 5-(3-(4-(4-Methylpiperazin-1-yl)-1H-imidazo[4,5-c]pyridin-2-yl)-1H-indazol-5-yl)pyridin-3-amine] gave an IC50 of 97.1 nM.
With `CN1CCN(c2nccc3[nH]c(-c4n[nH]c5ccc(-c6cccnc6)cc45)nc23)CC1` [Compound 212, 4-(4-Methylpiperazin-1-yl)-2-(5-(pyridin-3-yl)-1H-indazol-3-yl)-1H-imidazo [4,5-c]pyridine] the IC50 was 65 nM.
In the case of `CC(=O)c1ccc(-c2nccc3[nH]c(-c4n[nH]c5ccc(-c6cncc(NC(=O)CC(C)(C)C)c6)cc45)nc23)s1` [Compound 380, N-(5-(3-(4-(5-Acetylthiophen-2-yl)-1H-imidazo[4,5-c]pyridin-2-yl)-1H-indazol-5-yl)pyridin-3-yl)-3,3-dimethylbutanamide], the IC50 is reported as 187 nM.
With `CN(C)Cc1cncc(-c2cc(F)c3[nH]nc(-c4nc5c(-c6cccc(F)c6)nccc5[nH]4)c3c2)c1` [Compound 456, 1-(5-(7-Fluoro-3-(4-(3-fluorophenyl)-1H-imidazo[4,5-c]pyridin-2-yl)-1H-indazol-5-yl)pyridin-3-yl)-N,N-dimethylmethanamine] the IC50 was 90 nM.
In the case of `CN(C)Cc1cncc(-c2cc(F)c3[nH]nc(-c4nc5c(-c6ccsc6)nccc5[nH]4)c3c2)c1` [Compound 688, 1-(5-(7-Fluoro-3-(4-(thiophen-3-yl)-1H-imidazo[4,5-c]pyridin-2-yl)-1H-indazol-5-yl)pyridin-3-yl)-N,N-dimethylmethanamine], the IC50 is reported as 415 nM.
`CN(C)Cc1cncc(-c2cc(F)c3[nH]nc(-c4nc5c(-c6cc(F)cc(CNS(C)(=O)=O)c6)nccc5[nH]4)c3c2)c1` [Compound 844, N-(3-(2-(5-(5-((Dimethylamino)methyl)pyridin-3-yl)-7-fluoro-1H-indazol-3-yl)-1H-imidazo[4,5-c]pyridin-4-yl)-5-fluorobenzyl)methanesulfonamide] gave an IC50 of 96 nM.
Work on `CN(C)Cc1cncc(-c2cc3c(-c4nc5c(-c6cccc(F)c6)nccc5[nH]4)n[nH]c3cc2F)c1` [Compound 898, 1-(5-(6-Fluoro-3-(4-(3-fluorophenyl)-1H-imidazo[4,5-c]pyridin-2-yl)-1H-indazol-5-yl)pyridin-3-yl)-N,N-dimethylmethanamine] yielded an IC50 of 1450 nM.
With `CN(C)Cc1cncc(-c2cc3c(-c4nc5c(-c6ccsc6)nccc5[nH]4)n[nH]c3cc2F)c1` [Compound 1132, 1-(5-(6-Fluoro-3-(4-(thiophen-3-yl)-1H-imidazo[4,5-c]pyridin-2-yl)-1H-indazol-5-yl)pyridin-3-yl)-N,N-dimethylmethanamine] the IC50 was 3680 nM.
For `CN(C)Cc1cncc(-c2cc3c(-c4nc5c(-c6cc(F)cc(CNS(C)(=O)=O)c6)nccc5[nH]4)n[nH]c3cc2F)c1` [Compound 1288, N-(3-(2-(5-(5-((Dimethylamino)methyl)pyridin-3-yl)-6-fluoro-1H-indazol-3-yl)-1H-imidazo[4,5-c]pyridin-4-yl)-5-fluorobenzyl)methanesulfonamide], the IC50 was 637 nM.
In the case of `CN(C)Cc1cncc(-c2ccc3[nH]nc(-c4nc5c(-c6cccc(F)c6)nccc5[nH]4)c3c2F)c1` [Compound 1339, 1-(5-(4-Fluoro-3-(4-(3-fluorophenyl)-1H-imidazo[4,5-c]pyridin-2-yl)-1H-indazol-5-yl)pyridin-3-yl)-N,N-dimethylmethanamine], the IC50 is reported as 1180 nM.
In the case of `CN(C)Cc1cncc(-c2ccc3[nH]nc(-c4nc5c(-c6ccsc6)nccc5[nH]4)c3c2F)c1` [Compound 1573, 1-(5-(4-Fluoro-3-(4-(thiophen-3-yl)-1H-imidazo[4,5-c]pyridin-2-yl)-1H-indazol-5-yl)pyridin-3-yl)-N,N-dimethylmethanamine], the IC50 is reported as 3060 nM.
With `CN(C)Cc1cncc(-c2ccc3[nH]nc(-c4nc5c(-c6cc(F)cc(CNS(C)(=O)=O)c6)nccc5[nH]4)c3c2F)c1` [Compound 1729, N-(3-(2-(5-(5-((Dimethylamino)methyl)pyridin-3-yl)-4-fluoro-1H-indazol-3-yl)-1H-imidazo[4,5-c]pyridin-4-yl)-5-fluorobenzyl)methanesulfonamide] the IC50 was 1100 nM.
`Cc1ncc(-c2ccc3[nH]nc(-c4nc5c(-c6cccc(F)c6)nccc5[nH]4)c3c2)n1C` [Compound 1773, 2-(5-(1,2-Dimethyl-1H-imidazol-5-yl)-1H-indazol-3-yl)-4-(3-fluorophenyl)-1H-imidazo[4,5-c]pyridine] was tested, and the IC50 was 23 nM.
For `Fc1cccc(-c2nccc3[nH]c(-c4n[nH]c5ccc(-c6cncc(OCCN7CCCC7)c6)cc45)nc23)c1` [Compound 1778, 4-(3-Fluorophenyl)-2-(5-(5-(2-(pyrrolidin-1-yl)ethoxy)pyridin-3-yl)-1H-indazol-3-yl)-1H-imidazo[4,5-c]pyridine], the IC50 was 280 nM.
In the case of `Fc1cccc(-c2nccc3[nH]c(-c4n[nH]c5ccc(-c6cncc(OCc7ccccc7)c6)cc45)nc23)c1` [Compound 1782, 2-(5-(5-(Benzyloxy)pyridin-3-yl)-1H-indazol-3-yl)-4-(3-fluorophenyl)-1H-imidazo[4,5-c]pyridine], the IC50 is reported as 575 nM.
`O=C(CC1CCCCC1)Nc1cncc(-c2ccc3[nH]nc(-c4nc5c(-c6cccc(F)c6)nccc5[nH]4)c3c2)c1` [Compound 1783, 2-Cyclohexyl-N-(5-(3-(4-(3-fluorophenyl)-1H-imidazo[4,5-c]pyridin-2-yl)-1H-indazol-5-yl)pyridin-3-yl)acetamide] gave an IC50 of 505 nM.
In the case of `CN1CCN(c2nccc3[nH]c(-c4n[nH]c5ccc(-c6cn[nH]c6)cc45)nc23)CC1` [Compound 1915, 2-(5-(1H-pyrazol-4-yl)-1H-indazol-3-yl)-4-(4-methylpiperazin-1-yl)-1H-imidazo[4,5-c]pyridine], the IC50 is reported as 70 nM.
In the case of `CC(C)CC(=O)Nc1cncc(-c2ccc3[nH]nc(-c4nc5c(-c6cc(F)cc(OCCN(C)C)c6)nccc5[nH]4)c3c2)c1` [Compound 2076, N-(5-(3-(4-(3-(2-(Dimethylamino)ethoxy)-5-fluorophenyl)-1H-imidazo[4,5-c]pyridin-2-yl)-1H-indazol-5-yl)pyridin-3-yl)-3-methylbutanamide], the IC50 is reported as 370 nM.
`CC(C)CC(=O)Nc1cncc(-c2ccc3[nH]nc(-c4nc5c(-c6cc(F)cc(OCCN7CCCC7)c6)nccc5[nH]4)c3c2)c1` [Compound 2120, N-(5-(3-(4-(3-Fluoro-5-(2-(pyrrolidin-1-yl)ethoxy)phenyl)-1H-imidazo[4,5-c]pyridin-2-yl)-1H-indazol-5-yl)pyridin-3-yl)-3-methylbutanamide] was tested, and the IC50 was 305 nM.
For `CC(C)CC(=O)Nc1cncc(-c2ccc3[nH]nc(-c4nc5c(-c6cc(O)cc(F)c6)nccc5[nH]4)c3c2)c1` [Compound 2164, N-(5-(3-(4-(3-Fluoro-5-hydroxyphenyl)-1H-imidazo[4,5-c]pyridin-2-yl)-1H-indazol-5-yl)pyridin-3-yl)-3-methylbutanamide], the IC50 was 35 nM.
`COc1cc(F)cc(-c2nccc3[nH]c(-c4n[nH]c5ccc(-c6cncc(NC(=O)CC(C)C)c6)cc45)nc23)c1` [Compound 2208, N-(5-(3-(4-(3-Fluoro-5-methoxyphenyl)-1H-imidazo[4,5-c]pyridin-2-yl)-1H-indazol-5-yl)pyridin-3-yl)-3-methylbutanamide] gave an IC50 of 20 nM.
In the case of `c1cncc(-c2ccc3[nH]nc(-c4nc5c(N6CCOCC6)nccc5[nH]4)c3c2)c1` [Compound 2272, 4-(2-(5-(Pyridin-3-yl)-1H-indazol-3-yl)-1H-imidazo[4,5-c]pyridin-4-yl) morpholine], the IC50 is reported as 20 nM.
